Assay results published in BindingDB's records for doi:10.1021/acs.jmedchem.8b01596 (China Pharmaceutical University, 2019).

Biological target: Hypoxia-inducible factor 1-alpha (Homo sapiens, UniProt Q16665)
Test: Inhibition of HIF-1alpha in human HeLa cells after 6 hrs by luciferase reporter gene assay

Hypoxia-inducible factor 1-alpha, sequence (Q16665 whole entry): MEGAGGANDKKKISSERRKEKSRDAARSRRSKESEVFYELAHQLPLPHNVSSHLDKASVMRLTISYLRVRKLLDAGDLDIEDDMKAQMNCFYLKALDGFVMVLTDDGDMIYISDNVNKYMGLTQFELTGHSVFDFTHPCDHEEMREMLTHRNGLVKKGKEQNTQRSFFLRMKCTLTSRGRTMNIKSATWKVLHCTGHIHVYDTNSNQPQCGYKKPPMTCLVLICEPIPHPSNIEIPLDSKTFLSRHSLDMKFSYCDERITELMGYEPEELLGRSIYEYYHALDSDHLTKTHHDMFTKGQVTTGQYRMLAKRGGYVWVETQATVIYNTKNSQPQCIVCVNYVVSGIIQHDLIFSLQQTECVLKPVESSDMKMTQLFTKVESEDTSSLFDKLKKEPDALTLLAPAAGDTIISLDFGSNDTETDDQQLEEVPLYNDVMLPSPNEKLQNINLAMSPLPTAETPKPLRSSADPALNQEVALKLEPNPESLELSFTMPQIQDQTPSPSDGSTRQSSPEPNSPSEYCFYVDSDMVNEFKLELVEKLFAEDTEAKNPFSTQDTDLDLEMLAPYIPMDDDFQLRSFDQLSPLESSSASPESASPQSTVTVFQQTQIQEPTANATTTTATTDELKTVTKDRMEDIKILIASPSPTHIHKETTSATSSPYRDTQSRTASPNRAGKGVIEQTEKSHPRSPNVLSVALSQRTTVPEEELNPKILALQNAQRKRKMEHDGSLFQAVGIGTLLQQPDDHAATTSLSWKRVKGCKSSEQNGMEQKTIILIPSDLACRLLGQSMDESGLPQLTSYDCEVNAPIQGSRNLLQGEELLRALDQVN

## Cc1ccc(C(=O)COC(=O)c2cccc(NC(=O)c3ccc([N+](=O)[O-])cc3[N+](=O)[O-])c2)cc1 [3-[[(2,4-dinitrophenyl)-oxomethyl]amino]benzoic acid [2-(4-methylphenyl)-2-oxoethyl] ester]
  IC50: 2.6 µM
